The nature of this data set: in vitro. To be noted: human, hela cells, % viability.

Take `CC(C)C1SC(=NC2CC3CCC2C3)N(C)C1=O` (stereo not shown) [CBK076727]: the viability at 28.5 h, 10 µM was 90.6%.
In the case of `CCC1CCCCN1C(=O)c1cc(C)nc(Cl)c1` (stereo not shown) [CBK076748] it was 102%; in that of `CC(C)CNc1nnc(-c2ccccc2[N+](=O)[O-])s1` [CBK076755], 82.1%.
As for `CN1C[C@H](CNC(=O)Nc2ccc(F)c(F)c2)[C@@H](c2ccc(Cl)c(Cl)c2)C1` [CBK076770], the viability at 28.5 h, 10 µM amounted to 95.7%.
As to `O=C(O)C1CCN(c2ncnc3scc(-c4ccccc4)c23)CC1` [CBK076784], the viability at 28.5 h, 10 µM worked out at 95.6%.
In the case of `O=C(NC(=O)c1ccc(F)c(Cl)c1)Nc1nnc(C(F)(F)F)s1` [CBK076830] it was 88.6%.
In the case of `O=C(Nc1nnc(C(F)(F)F)s1)c1ccc(F)c(Cl)c1` [CBK076831] it was 92.2%; in that of `COc1cc(NC(=O)c2ccco2)c(C(=O)O)cc1OC` [CBK076926], 91.6%.
In the case of `CN1CCN(c2ccc(NS(=O)(=O)c3ccc(Cl)cc3)cc2)CC1` [CBK076932] it was 97.9%; in that of `c1ncc(OC2CCNC2)nc1OCCN1CCOCC1` (stereo not shown) [CBK077311T], 91.2%.
On to `CC(C)(C)c1ccc(C(=O)CC(C(=O)O)N2CCN(c3cccc(Cl)c3)CC2)cc1` (stereo not shown) [CBK077385], for which the viability at 28.5 h, 10 µM was determined as 90.9%.
In the case of `COc1ccc(/C=C(\NC(C)=O)C(=O)N2CCNCC2)cc1` [CBK077408] it was 90.5%; in that of `C/C(=N\OCC(=O)N(Cc1ccccc1)c1ccccc1C(=O)O)c1cccs1` [CBK077414], 94.2%; in that of `O=C(O)C1CCCCN1S(=O)(=O)c1ccc(Cl)cc1` (stereo not shown) [CBK077418], 91.6%.
In the case of `c1cncc(COc2cncc(OC3CCNC3)n2)c1` (stereo not shown) [CBK077419T] it was 94.3%; in that of `O=C(O)CCCCCNc1ncnc2sc3c(c12)CCCC3` [CBK077446], 102%.
In the case of `N=C1S/C(=C/c2ccc(-c3ccccc3C(=O)O)o2)C(=O)N1c1nccs1` [CBK077624] it was 93.9%; in that of `COC(=O)c1cc(NS(=O)(=O)c2cc(Cl)ccc2Cl)cc(C(=O)OC)c1` [CBK077853], 105%; in that of `O=C(O)c1cc(Cl)c2c(c1)[C@@H]1C=CC[C@@H]1[C@H](c1cccc(Br)c1)N2` [CBK077927], 106%.
As for `O=C1Nc2ccccc2/C1=C/c1ccc(-c2cccc(C(=O)O)c2)o1` [CBK077952], the viability at 28.5 h, 10 µM stood at 89.4%.
In the case of `COC(=O)c1ccc(C)c(NS(=O)(=O)c2cc(Cl)ccc2Cl)c1` [CBK077971] it was 90.9%; in that of `O=C(O)c1cc(-c2ccc(/C=C3\NC(=O)N(Cc4ccccc4)C3=O)o2)ccc1Cl` [CBK078117], 98.9%.
In the case of `COc1ccccc1CNc1ccc(C(=O)O)cc1` [CBK078187] it was 106%; in that of `O=C(Nc1ccccc1C(=O)O)c1ccc(-c2ccc(Cl)cc2Cl)o1` [CBK078453], 105%.
`C=CCOc1ccc(Cl)cc1CNc1cccc(C(=O)O)c1` [CBK078460]: the viability at 28.5 h, 10 µM came to 96.6%.
In the case of `O=C(O)CCC(=O)Nc1ccc(N2CCN(CCO)CC2)cc1` [CBK078486] it was 94.5%; in that of `CCOC(=O)c1sc(-c2ccc(C(C)(C)C)cc2)nc1O` [CBK078538], 92.3%.
In the case of `CCOC(=O)c1sc(-c2c(Cl)cc(C(F)(F)F)cc2Cl)nc1O` [CBK078547] it was 114%; in that of `CC(=O)N1CCc2cc(C)ccc2C12CCN(CCCOc1ccccc1)CC2` [CBK081064], 92.4%.
As for `Cc1ccc2c(c1)CCN(S(C)(=O)=O)C21CCN(CCCOc2ccccc2)CC1` [CBK081066], the viability at 28.5 h, 10 µM is 96.8%.
In the case of `CCOC(=O)c1sc(-c2cccc(C)n2)nc1O` [CBK081083] it was 84.5%; in that of `CCC1CCCCN1C(=O)c1ccnc(C)c1` (stereo not shown) [CBK081093], 91.3%; in that of `COc1cc(NC(=O)N[C@@H]2CN(C)C[C@H]2c2ccc(OC)c(OC)c2)cc(OC)c1` [CBK081112], 93%.
With `CCCc1[nH]nc(O)c1CCc1ccc(OC)cc1OC` [CBK081123], the viability at 28.5 h, 10 µM stood at 95.5%.
In the case of `CCCc1[nH]nc(O)c1CCc1ccc(OC)cc1` [CBK081128] it was 102%.
In the case of `O=C(O)CCCc1[nH]nc(O)c1Cc1c(Cl)cccc1Cl` [CBK081137] it was 105%; in that of `Cn1c2c(c3ccccc31)CCOC21CCNCC1` [CBK081142], 99.3%; in that of `CCC1CCCCN1C(=O)c1ccc(C(F)(F)F)cc1` (stereo not shown) [CBK081165], 107%.
In the case of `CSc1ccc(-c2cnc3nc(N)ccc3c2)cc1` [CBK081169] it was 85.2%; in that of `Nc1cc2cccnc2c(-c2ccc3c(c2)CCO3)n1` [CBK081173], 98%.
On to `COc1cc(F)ccc1-c1nc(N)cc2cccnc12` [CBK081176], for which the viability at 28.5 h, 10 µM came out at 88.9%.
In the case of `Nc1c(-c2cccc(C(F)(F)F)c2)cnc2cccnc12` [CBK081187] it was 88.7%.
In the case of `COc1cc(-c2cnc3cccnc3c2N)cc(OC)c1OC` [CBK081190] it was 93.1%; in that of `CCCCc1ccc(-c2cc3ncccc3nc2N)cc1` [CBK081198], 96.3%; in that of `Nc1nc2cccnc2cc1-c1cccc(C(F)(F)F)c1` [CBK081200], 103%.
Regarding `Nc1nc2cccnc2cc1-c1ccc2c(c1)OCCCO2` [CBK081201], the viability at 28.5 h, 10 µM amounted to 97.7%.
`COc1ccc(C(C)C)cc1-c1cnc2cccnc2c1N` [CBK081211]: the viability at 28.5 h, 10 µM came out at 105%.
In the case of `Nc1nc2cccnc2cc1-c1ccsc1` [CBK081214] it was 85.8%.
In the case of `CCCCc1ccc(-c2nc(NC(=O)NCC)cc3cccnc23)cc1` [CBK081231] it was 94.6%.
In the case of `CCNC(=O)Nc1nc2cccnc2cc1-c1ccc(OC)c(C)c1` [CBK081241] it was 94.6%; in that of `CC(C)C(=O)Nc1cc2cccnc2c(-c2ccsc2)n1` [CBK081259], 100%; in that of `CSc1ccc(-c2nc(NC(=O)C(C)C)cc3cccnc23)cc1` [CBK081262], 100%.
On to `CC(C)(C)c1ccc(-c2cnc3nc(O)ccc3c2)cc1` [CBK081284], for which the viability at 28.5 h, 10 µM is 74.6%.
In the case of `Oc1ccc2cc(-c3cccc(C(F)(F)F)c3)cnc2n1` [CBK081285] it was 59.5%; in that of `Oc1c(-c2cccc(C(F)(F)F)c2)cnc2cccnc12` [CBK081290], 87.1%.
In the case of `CCCCc1ccc(-c2cnc3nc(O)ccc3c2)cc1` [CBK081296] it was 69.9%; in that of `O=S(=O)(c1ccc(I)cc1)n1ccc2c(N3CCNCC3)cncc21` [CBK081326C], 84.9%.
Consider `C(=C\c1ccc(-c2nnc(CSCCOc3ccccc3)o2)cc1)/CN1CCCC1` [CBK081376], for which the viability at 28.5 h, 10 µM worked out at 98.5%.
In the case of `COc1ccc(C(NC(=O)C2CCN(Cc3ccc4c(c3)OCO4)CC2)c2ccccc2C)cn1` (stereo not shown) [CBK081453T] it was 121%; in that of `COc1ccc(C(NC(=O)N2CCN(C(=O)NCc3ccccc3Cl)CC2)c2ccccc2C)cn1` (stereo not shown) [CBK081471], 88.7%; in that of `CCCCC1CCC(C(=O)Oc2ccccc2OCCO)CC1` (stereo not shown) [CBK081498], 90.6%.
In the case of `CCC1CCCCN1C(=O)c1cccc(C)c1C` (stereo not shown) [CBK081501] it was 96.5%.
Regarding `CCC1CCCCN1C(=O)c1cccc(OC)c1` (stereo not shown) [CBK081504], the viability at 28.5 h, 10 µM worked out at 98%.
In the case of `CC(C)Nc1cc(Cl)ncn1` [CBK081511] it was 108%.
In the case of `CCN(CC)C(=O)CCCc1[nH]nc(O)c1Cc1c(Cl)cccc1Cl` [CBK081524] it was 89%.
Turning to `CCC1CCCCN1C(=O)c1ccc(C)c(OC)c1` (stereo not shown) [CBK081557], the viability at 28.5 h, 10 µM was 103%.
In the case of `COc1ccc([C@@]23CC[C@@H](NC(=O)c4ccc(C(F)(F)F)c(F)c4)C[C@@H]2CN(C)C3)cc1OC` [CBK082742C] it was 107%; in that of `COc1ccc([C@]23CC[C@H](NC(=O)c4ccc(C(F)(F)F)c(F)c4)C[C@H]2CN(C)C3)cc1OC` [CBK082743T], 110%.
Regarding `CCC1CCCCN1C(=O)c1ccc(C)c(Cl)c1` (stereo not shown) [CBK082756], the viability at 28.5 h, 10 µM was found to be 91.7%.
In the case of `COc1ccc2[nH]c3c(c2c1)CCN(C(=O)CNCC(=O)O)C31CCN(CCOc2ccccc2)C1` (stereo not shown) [CBK082782T] it was 114%.
In the case of `O=[N+]([O-])c1ccc(CN2CCN(c3nccnc3OCC3COc4ccccc4O3)CC2)cc1` (stereo not shown) [CBK082791T] it was 107%; in that of `c1ccc(CCN2CCN(c3nccnc3OCC3COc4ccccc4O3)CC2)cc1` (stereo not shown) [CBK082794T], 99.4%.
For the compound `CSCCN1CCN(c2nccnc2OCC2COc3ccccc3O2)CC1` (stereo not shown) [CBK082806T], the viability at 28.5 h, 10 µM was determined as 85.2%.
Turning to `COc1ccc2[nH]c3c(c2c1)CCN(CCc1ccc(F)cc1)C3` [CBK082819T], the viability at 28.5 h, 10 µM is 92.3%.
For `Clc1ccc(CN2CCN(c3nccnc3OC3CCCCC3)CC2)cc1` [CBK082826T], the viability at 28.5 h, 10 µM is 101%.
In the case of `COc1ccc(CN2CCN(c3nccnc3OC3CCCCC3)CC2)cc1` [CBK082830T] it was 115%.
As to `c1cnc(N2CCN(Cc3ccc4c(c3)OCO4)CC2)c(OC2CCCCC2)n1` [CBK082833T], the viability at 28.5 h, 10 µM was found to be 95.6%.
In the case of `CSCCN1CCN(c2nccnc2OC2CCCCC2)CC1` [CBK082843T] it was 108%; in that of `c1ccc2c(CCN3CCN(c4nccnc4OC4CCCCC4)CC3)c[nH]c2c1` [CBK082847T], 100%; in that of `FC(F)(F)c1ccc(CN2CCC(Oc3nccnc3OC3CCCCC3)CC2)cc1` [CBK082859T], 92.1%.
In the case of `O=[N+]([O-])c1ccc(CN2CCC(Oc3nccnc3OC3CCCCC3)CC2)cc1` [CBK082861T] it was 90.4%.
In the case of `CCN(CC)C(=O)CN1CCC(Oc2nccnc2OC2CCCCC2)CC1` [CBK082866T], the viability at 28.5 h, 10 µM was determined as 87%.

For orientation: viability means a read-out of living cells in per cent, often relative to untreated cells.

For the origin of these results see paper PMC12040169 (PLOS Biology, 2025).
